# Experimental data as given in publication PMC4313117, “Elabela-Apelin Receptor Signaling Pathway is Functional in Mammalian Systems” (Scientific Reports, 2015).
# Assays:
# mouse aortic rings = assay: Vasorelaxation of U46619-contracted mouse aortic rings; parameters: species or system mouse (C57BL/6)
# Description: Changes in tension were expressed as the percentage decrease in reference to precontraction tension. […] Values are means ± SEM. (n = 5–10). **p < 0.01, compared to aortas with endothelium at the same concentration points of the compound.
# Aortas were isolated from 8–10 weeks male wild-type C57BL/6 mice, cut into 3-mm rings and mounted in organ chambers (PowerLab, AD Instruments, CO, USA) in Kreb's buffer as described previously. The contractile response was elicited by vasoconstrictor U46619 (30 nM) to produce contraction. […] In some preparations, the endothelium was mechanically removed from denuded arteries by gentle rubbing off the intimal surface with a wooden stick.
# APJ = conditions: zebrafish studies; cited from earlier work
# Description: ELA deficiency leads to severe defects in heart development and lymphogenesis. ...
# HUVECs = assay: In vitro angiogenesis (tubular formation) assay in HUVECs; type: cell-based, human; conditions: for increase in number of branch points: HUVECs on Geltrex, counted after 10 hr; for increase in number of branch points / increase in tubular formation, APJ-overexpressing HUVECs: n = 5
# Description: ELA is a secreted hormone and expressed in adult kidney and prostate, and may, therefore, circulate in blood. Since ELA is required for normal development of cardiovascular system, blood vessel could be a target of ELA action. Vascular tube formation assay is a well-used in vitro study to assess angiogenic factors and conditions in which vascular cells, [e.g. human umbilical vascular endothelial cells (HUVECs)], can form tube-like structures under pro-angiogenic conditions in culture wells coated with Geltrex containing extra-cellular matrix. The number of branch points is used as an indicator for the strength of angiogenic stimuli.
# Figure 4 Stimulation of tubule-like structure by ELA-APJ signaling. […] (B), Reverse transcription PCR of human APJ expression of HUVECs infected with APJ or APJ siRNA lentiviral constructs.
# Tubular formation assay for angiogenesis was conducted in 96-well plates which were coated with 50 μl of Geltrex (Life Technologies, A14133-02) and left for polymerization by incubation for 1 hr at 37°C. […] Quantification of the tubular formation was performed after 10 hr of culture by calculating the number of branching point formed in each well under an inverted phase contrast photomicroscope (Olympus IX50), as described.
# human saphenous vein = conditions: cited from earlier work
# [1] = test system: vascular tone; blood pressure; conditions: cited from earlier work
# Protocol: The aortic rings were induced to contraction with vasoconstrictor U46619 (final concentration, 30 nM).
# [2] = test system: mouse heart failure model of coronary artery ligation; conditions: cited from earlier work
# Description: Apelin was considered the only endogenous ligand for APJ since isolation of the apelin peptide. Apelin is expressed in multiple tissues including adipose tissue, heart, vasculature, brain and kidney, whereas APJ is more broadly expressed in tissues such as heart, blood vessels and adipose tissue. […] At the receptor level, APJ is a GPCR coupled to Gi and/or Gq[15][16]. Activation of APJ results in biochemical responses i ... || Recently, the therapeutic potential of apelin as a reagent for heart failure has been increasingly recognized.
compound,measurement,setting,value
CSCC[C@H](NC(=O)[C@@H](NC(=O)[C@H](CC(C)C)NC(=O)[C@H](CC(N)=O)NC(=O)[C@@H](NC(=O)[C@@H]1CCCN1C(=O)[C@H](CCCNC(=N)N)NC(=O)[C@@H](N)CCC(N)=O)C(C)C)[C@@H](C)O)C(=O)N[C@@H](CCCNC(=N)N)C(=O)N[C@@H](CCCNC(=N)N)C(=O)N[C@@H](CCCCN)C(=O)N[C@@H](CC(C)C)C(=O)N[C@@H](CCCNC(=N)N)C(=O)N[C@@H](CCCCN)C(=O)N[C@@H](Cc1c[nH]cn1)C(=O)N[C@@H](CC(N)=O)C(=O)N[C@H]1CSSC[C@@H](C(=O)N[C@@H](CCSC)C(=O)N2CCC[C@H]2C(=O)N[C@@H](CC(C)C)C(=O)N[C@@H](Cc2c[nH]cn2)C(=O)N[C@@H](CO)C(=O)N[C@@H](CCCNC(=N)N)C(=O)N[C@H](C(=O)N2CCC[C@H]2C(=O)N[C@@H](Cc2ccccc2)C(=O)N2CCC[C@H]2C(=O)O)C(C)C)NC(=O)[C@H](CCCNC(=N)N)NC(=O)[C@H](CCCNC(=N)N)NC(=O)[C@H](CCC(N)=O)NC(=O)[C@H](CC(C)C)NC1=O [ELA],relaxation with L-NAME pretreatment,"mouse aortic rings; 1 mM L-NAME for 30 min, then U46619, followed by ELA",No significant difference was observed between the L-NAME-treated and non-treated vessels
same,"maximum relaxation, endothelium-intact vessels","mouse aortic rings; U46619 30 nM precontraction, ELA 10^−9 to 10^−6 M cumulative, n = 5–10",73.7%
same,decrease in relaxation in denuded vs intact vessels,"mouse aortic rings; endothelium-denuded, ELA at corresponding concentrations, n = 5–10",~ 20%
same,binding and activation of APJ,APJ,binds and activates APJ
same,"tubular formation, APJ-knock down HUVECs","HUVECs; ELA 0.1 μM, APJ siRNA",not effective in inducing the formation of tubular structures
same,increase in number of branch points,HUVECs; ELA 0.1 μM,71.9%
same,"increase in tubular formation, APJ-overexpressing HUVECs","HUVECs; ELA 0.1 μM, compared to empty vector control cells with ELA",63.3%
same,"increase in tubular formation, APJ-overexpressing HUVECs","HUVECs; ELA 0.1 μM, compared to empty vector control cells without ELA",190.2%
same,increase in number of branch points,HUVECs; ELA 0.5 μM,222.8%
same,increase in number of branch points,HUVECs; ELA 1 μM,266.7%
CC(=O)OCC[N+](C)(C)C [acetylcholine],relaxation by acetylcholine (control of endothelium removal and NOS inhibition),mouse aortic rings; endothelium-denuded or L-NAME-treated arteries,inability of acetylcholine to relax the arteries
apelin,vasoconstriction,human saphenous vein,vasoconstriction is also noted in human saphenous vein
same,vascular tone,[1],relax vascular tone
same,vasodilatory effect,[1],a vasodilatory effect of apelin is reported
same,blood pressure,[1]; no ref number printed at this statement,lower blood pressure
same,vasoconstriction in denuded vessels,[1]; vessels denuded of endothelium,vasoconstriction is also noted
same,"cardiac protection, contractility, infarction size, stem cell mobilization",[2]; mouse heart failure model of coronary artery ligation,"have cardiac-protective effect and can increase heart contractility, reduce infarction size and promote cardiac stem cell mobilization to the infarct area"
same,cardioprotective effect,"[2]; various animal models, infusion",appears to have cardioprotective effect in various animal models
apelin-13,reduction of relaxing effect by removal of endothelium,"mouse aortic rings; apelin-13, denuded vs intact vessels, n = 5–10",48%
same,"relaxation, denuded vessels","mouse aortic rings; apelin-13, endothelium-denuded, U46619 30 nM precontraction, n = 5–10",31%
same,"maximum relaxation, endothelium-intact vessels","mouse aortic rings; apelin-13 at 10^−6 M, U46619 30 nM precontraction, n = 5–10",79%
